From patent US10935546B2, “Fluorescent AMP-kinase biosensors” (Universite Grenoble Alpes, priority 2015, dated 2021)

Tests used:
AMPfret 2.1 = target: T1, AMPfret 2.1 (UniProt O43741+P80385+Q09137); assay: FRET assay with purified AMPfret 2.1 sensor (fluorimeter); format: binding, rat α2 and γ1, human β2; conditions: 50 μM A-769662 or 500 μM Metformin, compared with 20 μM AMP (FIG. 6)
T1 construct: decaHis tag with TEV site (N); made in house; host or cells: E. coli BL21 (DE3) Star
Description: The FRET ratio was calculated from fluorescence emission spectra excited at 430 nm. Data points correspond to mean±SEM (n>3).
Structure and names of the molecules are given below the bars.
(§1) FRET assay: FRET signal variation in presence of different compounds (nucleotides, chemicals, ions) was measured using a fluorimeter (Photon Technology International). AMPfret constructs (20 pmol) were incubated in a quartz cuvette in a final volume of 150 μL (spectro buffer: 50 mM Tris pH8, 200 mM NaCl, 5 mM MgCl2, 2 mM β-mercaptoethanol). Effects of nucleotides and others compounds (previously prepared in the spectro buffer) on the FRET ratio given by AMPfret sensor was determined by comparing FRET ratio (peak value at 527 nm/peak value at 476 nm) in presence or absence of the compounds. Excitation wavelength was set to 430 nm, and emission spectra were recorded from 450 to 600 nm with an integration time of 0.2 s. Mg^2+ effect on FRET was investigated in spectro buffer without Mg^2+.

[1] = FRET signal variation of AMPfret constructs upon AMP/ADP binding; conditions: 3 mM ATP vs 20 μM AMP (FIG. 2)
Text: Top: Schema showing structural organization of the sensors. CFP and YFP are respectively represented as hatched- and dotted-circles. (a) Fluorescence emission spectra of AMPfret constructs excited at 430 nm. […] Data correspond to mean±SEM (AMPfret A: n=7; AMPfret C: n=10).
Second generation of AMPfret constructs 1.1 and 2.1. based on constructs AMPfret C and A, respectively. Top: Schema showing structural organization of the sensors. Both optimized constructs contain mseCFPΔ11/cpVenus as GFP-derived fluorescent couple instead of CFP/YFP. mseCFPΔ11 and cpVenus are respectively represented as hatched- and checkered circles. […] (a) Fluorescence emission spectra of AMPfret constructs excited at 430 nm. […] Data correspond to mean±SEM (AMPfret 1.0: n=10; AMPfret 1.1: n=7); *=p<0.001 (significance assessed by a Student-Newman-Keuls test).
as §1, with “AMPfret constructs (20 pmol) were incubated in a quartz cuvette in a final volume of 150 μL (spectro buffer: 50 mM Tris pH8, 200 mM NaCl, 5 mM MgCl2, 2 mM β-mercaptoethanol).” left out, “Mg^2+ effect on FRET was investigated in spectro buffer without Mg^2+.” left out

[2] = test system: AMPfret 2.1 in 3T3-L1 or HeLa cells; conditions: 1 mM AICAR
Description: HeLa cells transfected with AMPFret 2.1 were exposed for 60 min to 1 mM AICAR. […] (b) Time course of the FRET signal. […] (c) AMPK activation at t=0 min and t=60 min. Phosphorylation of the AMPK substrate ACC as determined by immunoblotting (lower panel) and quantification of the resulting P-ACC/total ACC ratio (upper panel). P-ACC/total ACC ratios at t=0 and t=60 min are respectively represented as a white dotted bar and black dotted bar. Data correspond to mean±SEM (n=3).
For cellular ex vivo experiments, subunits of the optimized construct AMPfret 2.1 were cloned in the vectors (pACEMam2, pMDS and pMDK) of the MultiMam expression system. Created plasmids were fused via their Lox-P site to yield to a single mammalian expression vector coding for the sensor AMPFret 2.1 according to well-known techniques to the skilled man in the art.
3T3-L1 and HeLa cells were cultivated in glucose containing DMEM (4.5 g/L) supplemented with SVF, glutamine, penicillin and streptomycin. Once cells reached around 80% confluence, medium was replaced by OptiMEM (Lifetechnologies) and AMPfret 2.1 coding plasmid was transfected using Lipofectamine2000 (Lifetechnologies). After 5 h, OptiMEM was exchanged by complete DMEM and cells grew for >36 h until their observations under the confocal microscope.
LabTek plates were placed in an incubation chamber in which the temperature and O2 concentration were maintained at 37° C. and 21%, respectively. Without moving the Labtek, 200 μL medium was replaced by the same volume of complete medium containing 2 mM AICAR (1 mM final). Excitation wavelength was set to 458 nm and emission spectra showing FRET signal were monitored through A scans from 463 nm to 600 nm every 15 min. ROI (region of interest) were drawn in order to cover entire cells. FRET ratio variations were calculated from those measured emission spectra.
AMPfret 2.1 was excited using a 458 nm laser and emission spectra showing FRET signal were monitored through A scans from 463 nm to 600 nm every 15 min.

T1 sequence (Q09137 1-550): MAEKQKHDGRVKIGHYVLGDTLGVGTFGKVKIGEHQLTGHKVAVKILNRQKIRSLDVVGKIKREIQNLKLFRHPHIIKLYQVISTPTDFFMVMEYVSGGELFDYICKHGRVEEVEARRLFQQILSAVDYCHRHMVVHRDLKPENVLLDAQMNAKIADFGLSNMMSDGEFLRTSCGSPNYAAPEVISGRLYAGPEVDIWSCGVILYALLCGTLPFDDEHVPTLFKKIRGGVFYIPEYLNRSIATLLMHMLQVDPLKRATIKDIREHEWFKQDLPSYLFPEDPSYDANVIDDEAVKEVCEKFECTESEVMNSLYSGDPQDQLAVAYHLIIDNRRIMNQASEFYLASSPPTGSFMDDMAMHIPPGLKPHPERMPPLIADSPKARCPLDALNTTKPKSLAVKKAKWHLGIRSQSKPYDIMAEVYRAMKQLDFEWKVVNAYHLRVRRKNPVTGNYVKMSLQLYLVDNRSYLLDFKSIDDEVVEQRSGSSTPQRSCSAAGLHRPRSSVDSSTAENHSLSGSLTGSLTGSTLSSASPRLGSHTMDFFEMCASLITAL
T1 sequence (O43741 1-269): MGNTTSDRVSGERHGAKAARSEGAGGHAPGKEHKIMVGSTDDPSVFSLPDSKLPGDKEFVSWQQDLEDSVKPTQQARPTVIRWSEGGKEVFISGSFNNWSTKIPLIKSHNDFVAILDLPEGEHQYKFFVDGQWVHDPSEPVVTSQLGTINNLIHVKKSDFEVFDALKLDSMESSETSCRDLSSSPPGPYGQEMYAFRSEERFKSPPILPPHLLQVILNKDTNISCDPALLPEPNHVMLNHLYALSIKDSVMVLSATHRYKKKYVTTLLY
T1 sequence (P80385 whole entry): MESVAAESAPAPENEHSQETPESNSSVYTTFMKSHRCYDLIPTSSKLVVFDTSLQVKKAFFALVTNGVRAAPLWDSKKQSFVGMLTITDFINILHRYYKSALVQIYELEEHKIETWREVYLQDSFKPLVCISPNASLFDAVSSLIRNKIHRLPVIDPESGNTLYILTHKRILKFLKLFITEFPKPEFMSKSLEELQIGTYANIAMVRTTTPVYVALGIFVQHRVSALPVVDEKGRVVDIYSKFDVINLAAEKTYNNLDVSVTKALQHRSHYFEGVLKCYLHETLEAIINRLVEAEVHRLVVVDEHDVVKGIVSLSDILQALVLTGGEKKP

Compound	FRET signal induced in AMPfret in vitro (AMPfret 2.1)	difference in FRET signal depending on the presence of AMP or ADP [1] [%]	also measured
CN(C)C(=N)N=C(N)N [Metformin]	did not induce any FRET variation	–	–
AMPfret A: AMPK heterotrimer: rat alpha2-CFP (SEQ ID NO:5), human beta2-YFP (SEQ ID NO:11), rat gamma1 (SEQ ID NO:15)	–	~10	–
AMPfret C: AMPK heterotrimer: rat alpha2-CFP (SEQ ID NO:5), human beta2 (SEQ ID NO:9), rat gamma1-YFP (SEQ ID NO:21)	–	~10	–
N#Cc1c(O)c2c(-c3ccc(-c4ccccc4O)cc3)csc2[nH]c1=O [A-769662]	induces a FRET signal comparable to AMP	–	–
NC(=O)c1ncn([C@@H]2O[C@H](CO)[C@@H](O)[C@H]2O)c1N [AICAR, 5′-Aminoimidazole-4-carboxamide ribonucleoside]	–	–	time to maximal effect on FRET signal [2]: about 30 minutes; AMPfret 2.1 FRET signal upon AICAR addition ([2]; 60 min, read every 15 min, HeLa and 3T3-L1 cells): increased with time; FRET response after 15 min of treatment ([2]; 15 min): More than half-maximal response; cpVenus peak (527 nm) in fluorescence emission spectra over time ([2]; HeLa cells transfected with AMPFret 2.1, 0, 15, 30 min): increase of cpVenus peak
